Results published in patent US9649295B2, “Chemical inhibitors of soluble adenylyl cyclase (sAC)” (Cornell Research Foundation, Inc., priority 2004, dated 2017).
“Also recorded” adds a separate entry of the source.

What was measured:
[1] = biological target: T1, purified solubilized version of Type VII tmAC (sol.AC7) (Homo sapiens, UniProt P51828); assay: in vitro cyclase activity of purified solubilized Type VII tmAC; format: biochemical; conditions: read-out: in vitro IC50 pure sol.AC7
T1 construct: a mixture of purified catalytic domains, C1 and C2, from Type VII tmAC; made in house
T1 sequence (P51828 279-406 limits assumed): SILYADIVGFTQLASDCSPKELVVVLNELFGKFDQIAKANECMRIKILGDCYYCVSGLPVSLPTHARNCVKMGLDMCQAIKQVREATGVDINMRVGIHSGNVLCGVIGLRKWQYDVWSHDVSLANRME
T1 sequence (P51828 879-1023 limits assumed): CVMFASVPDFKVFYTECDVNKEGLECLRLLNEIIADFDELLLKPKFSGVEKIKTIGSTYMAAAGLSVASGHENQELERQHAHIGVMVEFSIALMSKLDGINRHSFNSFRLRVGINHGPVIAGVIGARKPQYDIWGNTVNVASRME

cAMP in INS-1E cells = assay: intracellular cAMP in INS-1E cells; format: cell-based
Protocol: (§1) Briefly, cells (passage 140-150) were plated at 2.5×10^5 cells/well in a 24 well plate and permitted to recover for two days. Cells were glucose starved by incubation for 1 hour in the presence of 2.5 mM glucose KRB medium supplemented with 2 mM sodium bicarbonate, 10 mM Hepes, and 0.1% BSA. After washing, cells were incubated in KRB with either 2.5 mM or 16 mM glucose in the presence of either vehicle control (DMSO or MeOH) or indicated drug. After the indicated time, removed media was cleared of cell debris and secreted insulin was measured by Insulin ELISA kit (Linco Research, St. Charles, Mo., or ALPCO, Windham, N.H.). If cAMP was to be concomitantly measured, cells were pre-treated with IBMX for the final 10 minutes of the glucose starvation and IBMX was included in all subsequent incubations. For the washout experiment, subsequent to initial insulin determination, cells treated with KH7 were placed in fresh KRB (2.5 mM glucose) for an additional hour and insulin release was measured as above in the absence of any added drug. For transferrin recycling, loading of cells with I^125 transferrin was performed during hour incubation in 2.5 mM glucose KRB.

[2] = biological target: T2, Type II tmAC (tmAC in extracts) (Homo sapiens, UniProt Q08462); assay: in vitro cyclase activity in extracts of cells overexpressing Type II tmAC; format: biochemical; conditions: cell printing μM
T2 construct: expressed in transfected cells
T2 sequence (Q08462 whole entry): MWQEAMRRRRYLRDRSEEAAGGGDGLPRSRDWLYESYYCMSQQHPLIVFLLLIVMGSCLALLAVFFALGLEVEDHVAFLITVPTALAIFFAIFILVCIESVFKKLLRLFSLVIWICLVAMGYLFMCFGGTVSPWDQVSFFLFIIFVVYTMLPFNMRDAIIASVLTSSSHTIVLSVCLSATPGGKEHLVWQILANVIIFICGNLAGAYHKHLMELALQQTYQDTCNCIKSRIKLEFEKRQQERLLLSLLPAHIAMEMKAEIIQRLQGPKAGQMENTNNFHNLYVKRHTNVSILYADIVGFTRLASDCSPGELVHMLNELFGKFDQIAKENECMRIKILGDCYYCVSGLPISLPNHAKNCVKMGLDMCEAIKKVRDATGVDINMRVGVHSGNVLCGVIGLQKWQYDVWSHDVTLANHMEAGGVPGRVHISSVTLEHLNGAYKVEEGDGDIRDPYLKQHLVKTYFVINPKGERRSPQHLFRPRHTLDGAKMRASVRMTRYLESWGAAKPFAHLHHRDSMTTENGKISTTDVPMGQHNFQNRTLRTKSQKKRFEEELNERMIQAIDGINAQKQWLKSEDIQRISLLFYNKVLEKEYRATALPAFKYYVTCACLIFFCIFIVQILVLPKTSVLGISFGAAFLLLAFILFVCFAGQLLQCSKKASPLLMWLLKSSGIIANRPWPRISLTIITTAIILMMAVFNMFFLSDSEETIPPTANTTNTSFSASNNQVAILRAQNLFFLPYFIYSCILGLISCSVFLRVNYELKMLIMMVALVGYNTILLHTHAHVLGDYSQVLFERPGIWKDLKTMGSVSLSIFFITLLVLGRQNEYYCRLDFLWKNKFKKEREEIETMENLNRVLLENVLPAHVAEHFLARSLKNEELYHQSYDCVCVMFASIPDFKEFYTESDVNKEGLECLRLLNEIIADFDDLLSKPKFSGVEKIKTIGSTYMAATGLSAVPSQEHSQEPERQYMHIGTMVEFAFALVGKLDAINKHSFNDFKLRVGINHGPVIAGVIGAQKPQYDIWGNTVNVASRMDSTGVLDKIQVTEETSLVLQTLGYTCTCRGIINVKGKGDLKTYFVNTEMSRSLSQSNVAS

PfAC = assay: adenylyl cyclase activity in whole cell extract of isolated parasites; format: biochemical, Plasmodium falciparum; conditions: MnCl2 and ATP
Rap1 activation = assay: NGF induced Rap1 activation in PC12 cells; format: cell-based; conditions: 15 minutes, KH7 50 μM
Protocol: FIG. 18 illustrates that NGF induced Rap1 activation is blocked by KH7 and rescued by membrane permeable cAMP. PC12 cells were stimulated with or without nerve growth factor (NGF) for 15 minutes in the presence or absence of KH7 (50 μM) and 1 mM 8Br-cAMP.

INS-1E cells [3] = assay: transferrin recycling in INS-1E cells; format: cell-based; conditions: 30 minutes, KH7 30 μM
Protocol: as §1

tmACs [4] = assay: cAMP forming activity inside cells stimulated with forskolin; format: cell-based; conditions: read-out: in vivo IC50 tmAC (FSK)
Plasmodium falciparum = Plasmodium falciparum viability, luciferase assay; format: cell-based; conditions: 24 hours
Protocol: . Plasmodium cultures were incubated in the indicated concentrations of KH7 or KH7.15 for 24 hours and viability assessed by luciferase assay (FIG. 16A). […].
Therefore, the effect of sAC inhibitors on P. falciparum viability was tested. […].

Candida albicans = assay: CO2 induced differentiation of Candida albicans into the filamentous stage; format: cell-based; conditions: similar dose dependency as on JR3
Excerpt: (§2) . FIG. 17A illustrates the bicarbonate dependence of the JR3 fragment; […];

[5] = glucose tolerance test in C57BL/6 mice; format: in vivo, mouse
Protocol: C57B1/6 adult male mice were maintained on a 12 hour light/dark cycle, with free access to water and standard laboratory chow (Research Animal Resource Center, Weill Medical College of Cornell University). Animals were treated in accordance with our institutions guidelines. After a 14-16 hour overnight fast with free access to water, blood was removed from the tail vein for glucose (Hemocue B-Glucose Microcuvette and Analyzer; Hemocue, Inc., Lake Forest, Calif.) and insulin (Rat/Mouse Insulin ELISA Kit; Linco Research) measurements. Mice then received an i.p injection of 100 mM KH7 (100 μmoles/kg) or vehicle control. Twenty minutes later, both groups were injected i.p. with 1 g/kg glucose (20% solution). Blood samples were taken from the tail vein at times indicated, and glucose and insulin were quantitated according to manufacturer's instructions.

[6] = toxicity observation and post-mortem analysis in mice; format: in vivo, mouse; conditions: single injection
tmACs [7] = assay: adenylyl cyclase activity in forskolin stimulated INS-1E cell lysate; conditions: forskolin (10 μM) stimulated INS-1E
Protocol: In vitro adenylyl cyclase assays were performed on purified recombinant human sACt protein as previously described in Litvin et al., “Kinetic Properties of “Soluble” Adenylyl Cyclase.

[8] = test system: CREB phosphorylation in isolated nuclei; assay: CREB phosphorylation in isolated HeLa nuclei (P2), Western analysis; format: biochemical; conditions: 40 mM bicarbonate, 50 μM KH7
Protocol: The resuspended pellet and 60% OptiPrep iodixanol were mixed (30% OptiPrep final) and centrifuged at 10,000 g for 20 min. The supernatant was removed and the nuclei-enriched pellet (P2) was resuspended in TM-2 buffer without detergent.
Reactions were stopped by the addition of 20 μl of SDS sample buffer (CREB phosphorylation) or by being placed into a 100° C. heat block for 3 min (adenylyl cyclase).
For whole cell and isolated nuclei CREB phosphorylation assays, equal cell or nuclear equivalents were separated under reducing conditions using a 10% SDS-PAGE, transferred to a PVDF membrane, and probed for CREB (rabbit polyclonal antiserum; Chemicon, Temecula, Calif.) and phosphorylated CREB (rabbit polyclonal antiserum; Upstate Biotechnology, Temecula, Calif.). HRP-conjugated secondary antibodies were used, and bands were visualized using ECL. Image analysis software (model Fluorchem 8800; Alpha Innotech, San Leandro, Calif.) was used to quantitate Western results. Intensities of phospho-CREB bands were normalized to total CREB.

[9] = biological target: catalytic portion of the sAC-like adenylyl cyclase from Candida albicans (fragment JR3) (Candida albicans, UniProt A0A1D8PR83); assay: biochemical
Chain of catalytic portion of the sAC-like adenylyl cyclase from Candida albicans (fragment JR3) (A0A1D8PR83 entry or part of it): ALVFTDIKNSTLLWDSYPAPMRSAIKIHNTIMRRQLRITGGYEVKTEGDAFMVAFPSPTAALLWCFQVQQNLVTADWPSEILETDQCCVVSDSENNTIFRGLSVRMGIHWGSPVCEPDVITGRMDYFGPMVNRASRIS
Excerpt: as §2

INS-1E cells [10] = assay: insulin release in INS-1E cells; format: cell-based; conditions: for effect on PMA induced insulin release: PMA 300 nM, 2.5 mM glucose, KH7 30 μM
Protocol: as §1

[11] = 16 mM glucose, 30 μM KH7, 30 μM KH7.15, 50 μM 2-hydroxyestradiol, 50 μM 2′5′ddAdo

**Q.** With `CC(Sc1nc2ccccc2[nH]1)C(=O)N/N=C/c1cc(Br)ccc1O` (stereo not shown) [KH7] as the compound, how does the IC50 [1] read?
**A.** > 55 µM

**Q.** And the “IC50 for blocking glucose-induced cAMP, compared with sAC inhibition” value (cAMP in INS-1E cells)?
**A.** matched its dose response of sAC inhibition

**Q.** And the “effect on cAMP induced by high glucose” value (cAMP in INS-1E cells; [11])?
**A.** blocked the cAMP induced by the presence of high glucose

**Q.** And the IC50 [2]?
**A.** > 100 µM

**Q.** And the “dose response for inhibiting PfAC activity versus killing parasites” value (PfAC)?
**A.** equal dose responses at killing parasites and at inhibiting PfAC activity

**Q.** And the “effect on NGF induced Rap1 activation” value (Rap1 activation)?
**A.** block NGF induced Rap1 activation; also recorded: blocked

**Q.** And the “effect on transferrin recycling” value (INS-1E cells [3])?
**A.** unaffected

**Q.** What about the “effect on transferrin recycling” value (INS-1E cells [3]; listed as K17) of the same compound?
**A.** does not affect

**Q.** And the IC50 (tmACs [4])?
**A.** > 500 µM

**Q.** And the “effect on infectious growth in red blood cells” value (Plasmodium falciparum)?
**A.** rapidly (in a single generation) and potently affected

**Q.** And the “effect on CO2 induced differentiation into the filamentous, infectious stage” value (Candida albicans)?
**A.** dose dependently inhibited

**Q.** What about the “glucose-induced serum insulin release” value ([5]; 100 μmoles/kg KH7 i.p., 1 g/kg glucose i.p.) of the same compound?
**A.** no statistically significant glucose-induced insulin release was detected

**Q.** What about the glucose tolerance ([5]; 100 μmoles/kg [49 mg/kg] KH7 i.p., 1 g/kg glucose i.p.) of the same compound?
**A.** glucose intolerant

**Q.** What about the “glucose tolerance test one week after injection” value ([5]; one week after KH7, no further drug, n=2) of the same compound?
**A.** normal glucose tolerance and insulin response

**Q.** What about the “behavior or stressful responses to injection” value [6] of the same compound?
**A.** did not elicit any behavior or stressful responses inconsistent with a simple saline injection

**Q.** What about the toxicity to mice [6] of the same compound?
**A.** did not appear to be toxic

**Q.** And the “anatomical, histological, and blood post-mortem analysis” value ([6]; within 48 hours after drug treatment)?
**A.** no significant toxicology or histological pathology

**Q.** And the “effect on tmACs” value (tmACs [7])?
**A.** inert towards tmACs

**Q.** And the “effect on bicarbonate-induced CREB phosphorylation” value [8]?
**A.** effective in preventing bicarbonate-induced CREB phosphorylation

**Q.** What about the IC50 [9] of the same compound?
**A.** ~23 µM

**Q.** And the “rescue of KH7 inhibition of GSIS by cAMP analog” value (INS-1E cells [10]; 50 μM KH7, 1 mM 8-Br-SpcAMP)?
**A.** rescued by addition of a membrane-permeable cAMP analog

**Q.** And the “effect on glucose-stimulated insulin secretion (GSIS)” value (INS-1E cells [10]; [11])?
**A.** blocked all insulin release induced by high glucose

**Q.** What about the cellular toxicity (INS-1E cells [10]; INS-1E cells) of the same compound?
**A.** not due to cellular toxicity

**Q.** And the IC50 (INS-1E cells [10]; INS-1E, 0.5 h, 16 mM glucose, 30 minutes, read-out: IC50 for inhibition of glucose-stimulated insulin secretion (GSIS))?
**A.** ~5 µM

**Q.** What about the “effect on PMA induced insulin release” value (INS-1E cells [10]; 30 minutes) of the same compound?
**A.** unaffected

**Q.** And the “effect on PMA induced insulin release” value (INS-1E cells [10]; 30 minutes, listed as K17)?
**A.** does not affect

**Q.** And the “insulin release over time after addition of high glucose” value (INS-1E cells [10]; in the presence of KH7)?
**A.** no significant insulin release was observed up to 45 minutes

**Q.** What about the “GSIS after drug washout” value (INS-1E cells [10]; sixty minutes following removal of drug) of the same compound?
**A.** normal GSIS was restored
